In brackets after ≈: the same amount, converted by molar mass. Where a name gives a salt, the structure may show the parent alone.

The subject of one assay is heart beat rate in the ventricle of mice placed in chloroform gas. In words: Anti-arrhythmic effect, Block's method (chloroform-induced, ventricular heart beat rate by electrocardiogram). The class given is in vivo, mice (ICR strain). The following applies: Mus musculus, ip, read-out: ED50 % (effective = heart beat rate in the ventricle reduced to less than 400 beats/minute).
Method: Test procedures: (Block's method)
Onto a 2 liter desiccator were placed 150 ml of chloroform and this was stirred with a magnetic stirrer while being heating by an incandescent lamp. When the desiccator was saturated with chloroform gas, mice (ICR strain, body weight between 20 and 25 g) were placed therein for 2 minutes and then the chest was opened. Silver dipolar electrodes were contacted with the ventricles and electrocardiograms were taken for 1 minute. Within 10-20 minutes, the test compound was administered intraperitoneally in a carboxymethyl-cellulose solution as vehicle.
On to `CC[C@@]12CCC[C@H]3[C@H](N)Cc4c(n(c5ccccc45)C(=O)C1)[C@H]32` (relative stereo) [Compound No. 110], for which the ED50 is 14 mg/kg. For the compound `N[C@@H]1Cc2c3n(c4ccc(O)cc24)C(=O)C[C@@]2(c4ccccc4)CCC[C@@H]1[C@@H]32` (relative stereo) [Compound No. 162], the ED50 came to 12 mg/kg. Still for that read-out and setting: the figure for `CCC[C@@]12CCC[C@H]3[C@H](N)Cc4c(n(c5ccc(O)cc45)C(=O)C1)[C@H]32` (relative stereo) [Compound No. 198] is 4.2 mg/kg. The same measure, in the same setting: the result for `CCC[C@@]12CCC[C@H]3[C@H](N)Cc4c(n(c5ccccc45)C(=O)C1)[C@H]32` (relative stereo) [Compound No. 96] reads 3.6 mg/kg; that for `CC[C@]12CCC[C@@H]3[C@H]1c1c(c4cc(O)ccc4n1C(=O)C2)C[C@H]3C(=O)NNCCN1CCCC1` (relative stereo) [Compound No. 146, 7-Hydroxy-12aβ-ethyl-4β-{3-[2-(1-pyrrolidinyl)ethyl]carbazoyl}-2,3,3aβ,4α,5,12,12aβ,12bβ-octahydrobenzo[d,e]indolo[3,2,1-i,j]quinolin-11(1H)-one hemihydrate], 22.5 mg/kg. Regarding `CC[C@@]12CCC[C@H]3[C@H](N)Cc4c(n(c5ccc(O)cc45)C(=O)C1)[C@H]32` (relative stereo) [Compound No. 197, 4β-Amino-12aβ-ethyl-7-hydroxy-2,3,3aβ,4α,5,12,12aβ,12bβ-octahydrobenzo[d,e]indolo[3,2,1-i,j]quinolin-11(1H)-one hemihydrate], the ED50 was 22.5 mg/kg.

The subject of another assay is arrhythmias induced by ischemic cardiac dysfunction caused by ligation of the coronary arteries of a perfusing heart. Description: Anti-arrhythmic effect: protection against arrhythmias induced by ischemia (coronary artery ligation and re-perfusion) of a perfusing heart, method of Opie et al. The arrangement: species or system male rats of Sprague-Dawley strain. The settings on record: Rattus norvegicus, read-out: ED70 (concentration required for 70% suppression of the arrhythmias during ligation and after re-perfusion). On the procedure: The test was performed according to the method of L. H. Opie et al [Cardiovascular Research, 12, 212 (1978)] using male rats of Sprague-Dawley strain weighing between 230 and 330 g. The antiarrhythmic effect was estimated by the ability of the test compound administered intravascularly to protect against the arrhythmias induced by ischemic cardiac dysfunction caused by ligation of the coronary arteries of a perfusing heart.
The test compounds were dissolved in dimethyl sulfoxide, and the required amount of injectible solution was prepared by mixing this with Krebs-Henseleit solution. The degree of protecting effect is reported as the concentration (ED70) required for 70% suppression of the arrhythmias during ligation and after re-perfusion.
In the case of `COC(=O)[C@@H]1Cc2c3n(c4ccccc24)C(=O)C[C@H]2CC[C@@H]1[C@@H]32` (relative stereo) [Compound No. 35, Methyl 1,2,2aβ,3α,4,11,11aβ,11bβ-octahydro-10-oxo-10H-cyclopenta[d,e]indolo[3,2,1-i,j]quinoline-3β-carboxylate], the EC70 is 4.2 µg/mL (≈ 13.6 µM).

The assay is the same for the next values; noted with them: rat perfusing heart, test compound administered intravascularly; read-out: ED70 (concentration required for 70% suppression of the arrhythmias during ligation and after re-perfusion).
In the case of `CC[C@@]12CCC[C@H]3[C@H](N)Cc4c(n(c5ccccc45)C(=O)C1)[C@H]32` (relative stereo) [Compound No. 110], the EC70 came out at 0.16 µg/mL (≈ 0.519 µM). On the same count and under the same terms, the result for `N[C@@H]1Cc2c3n(c4ccccc24)C(=O)C[C@H]2CC[C@@H]1[C@@H]32` (relative stereo) [Compound No. 55, 3β-Amino-1,2,2aβ,3α,4,11,11aβ,11bβ-octahydrocyclopenta[d,e]indolo[3,2,1-i,j]quinolin-10-one maleate] reads 0.64 µg/mL; that for `CCN(CC)CC(=O)Nc1c(C)cccc1C` [Lidocaine, reference compound], 5 µg/mL (≈ 21.3 µM). Take `C[C@@]12C3=C[C@@H](N)[C@@H]4CC[C@H](CC(=O)N1c1ccccc13)[C@@H]42` (relative stereo) [Compound No. 26, 3β-Amino-1,2,2aβ,3α,11,11aβ,11bβ,11cα-octahydro-11cα-methylcyclopenta[d,e]indolo[3,2,1-i,j]quinolin-10-one hydrochloride]: the EC70 is 0.9 µg/mL. Same read-out and setting: the figure for `CN(C)[C@@H]1Cc2c3n(c4ccccc24)C(=O)C[C@H]2CC[C@@H]1[C@@H]32` (relative stereo) [Compound No. 65, 1,2,2aβ,3α,4,11,11aβ,11bβ-Octahydro-3β-dimethylaminocyclopenta[d,e]indolo[3,2,1-i,j]quinolin-10-one maleate] is 0.3 µg/mL; for `CC[C@@]12CC[C@H]3[C@H](N)Cc4c(n(c5ccccc45)C(=O)C1)[C@H]32` (relative stereo) [Compound No. 59] it is 0.23 µg/mL (≈ 0.781 µM); for `CC(C)N(CCC(C(N)=O)(c1ccccc1)c1ccccn1)C(C)C` (centres unmarked) [Disopyramide, reference compound] it is 10 µg/mL (≈ 29.5 µM).

Take `N[C@@H]1Cc2c3n(c4ccccc24)C(=O)C[C@H]2CCC[C@@H]1[C@@H]32` (relative stereo) [Compound No. 106, 4β-amino-2,3,3aβ,4α,5,12,12aβ,12bβ-octahydrobenzo[d,e]indolo[3,2,1-i,j]quinolin-11(1H)-one maleate]: the EC70 stood at 1 µg/mL. On the same count and under the same terms, the result for `N[C@@H]1Cc2c3n(c4ccccc24)C(=O)C[C@H]2CCCC[C@@H]1[C@@H]32` (relative stereo) [Compound No. 228] reads 0.9 µg/mL (≈ 3.06 µM).

For a further assay, the system named is male mice of the DDY strain. In words: Diuretic effect: urine volume and sodium ion concentration by the filter paper method (Mineshita et al). The settings on record: 100 mg/kg p.o. Format: in vivo. As to the method:
The diuretic test was performed on groups of 5 male mice of the DDY strain, each weighing between 26 and 30 g. The test solutions were prepared by dissolving the test compounds in physiological saline containing 0.3% w/v carboxymethylcellulose and were administered orally to the animals. The urine volume and sodium ion concentration were estimated by the filter paper method [Mineshita et al: Pharmacometrics, 4, 33 (1970)]. In Table 13, the increase of the urine volume and sodium ion concentration are shown as a percentage of the values of a control group to which no active compound was administered.
Consider `O=C(O)[C@@H]1C=C2c3ccccc3N3C(=O)C[C@H]4CC[C@@H]1[C@H]4[C@H]23` (relative stereo) [Compound No. 14, 1,2,2aβ,3α,11,11aβ,11bβ,11cα-Octahydro-10-oxo-10H-cyclopenta[d,e]indolo[3,2,1-i,j]quinoline-3α-carboxylic acid], for which the “Urine Volume (increase as a percentage of the values of a control group)” value amounted to 231% and the “δNa^+ (increase of sodium ion concentration as a percentage of the values of a control group)” value came to 245%. For `O=C(O)[C@@H]1C=C2c3cc(Br)ccc3N3C(=O)C[C@H]4CC[C@@H]1[C@H]4[C@H]23` (relative stereo) [Compound No. 18], in that order: 86% and 168%.

For another assay, the system named is rats with ischemic brains. In words: Improvement of brain function: time until recovery of the righting reflex in rats with ischemic brains. Format: in vivo, male rats of the Wistar strain. The following applies: 10 mg/kg i.p. As to the method:
A test for recovery of brain function was performed using rats with ischemic brains. The bilaterial carotid arteries of male rats of the Wistar strain were ligated under anesthesia with thiopental (50 mg/kg, intraperitoneally) and the test compounds and a 0.5% w/v carboxymethylcellulose solution (vehicle) were intraperitoneally administered at the same time. The time until recovery of the righting relex was measured to give an index of the brain function. […] The known compound, Pentoxifylline, was tested in the same way, for comparison.
Turning to `O=C(O)[C@@H]1C=C2c3cc(Br)ccc3N3C(=O)C[C@H]4CC[C@@H]1[C@H]4[C@H]23` (relative stereo) [Compound No. 18], the “Ratio to Control (time until recovery of the righting reflex)” value was 0.84.

The assay is the same for the next values; noted with them: 30 mg/kg i.p.
As to `O=C(O)[C@@H]1C=C2c3cc(Br)ccc3N3C(=O)C[C@H]4CC[C@@H]1[C@H]4[C@H]23` (relative stereo) [Compound No. 18], the “Ratio to Control (time until recovery of the righting reflex)” value was 0.68. Same read-out and setting: the result for `CC(=O)CCCCn1c(=O)c2c(ncn2C)n(C)c1=O` [Pentoxifylline, reference compound] reads 0.82.

Values taken from US4716162A, “Fused 5 ring heterocyclic compounds, their preparation, and their anti-arrhythmic and diuretic use” (Sankyo Company, Limited, priority 1984, dated 1987).
